From ChEMBL document CHEMBL1201862, “PubChem BioAssay data set” (2004) come the findings set out here.

Experiment [1] concerns the target T1, Protein skinhead-1 (Caenorhabditis elegans, UniProt P34707).
T1 sequence (P34707 whole entry): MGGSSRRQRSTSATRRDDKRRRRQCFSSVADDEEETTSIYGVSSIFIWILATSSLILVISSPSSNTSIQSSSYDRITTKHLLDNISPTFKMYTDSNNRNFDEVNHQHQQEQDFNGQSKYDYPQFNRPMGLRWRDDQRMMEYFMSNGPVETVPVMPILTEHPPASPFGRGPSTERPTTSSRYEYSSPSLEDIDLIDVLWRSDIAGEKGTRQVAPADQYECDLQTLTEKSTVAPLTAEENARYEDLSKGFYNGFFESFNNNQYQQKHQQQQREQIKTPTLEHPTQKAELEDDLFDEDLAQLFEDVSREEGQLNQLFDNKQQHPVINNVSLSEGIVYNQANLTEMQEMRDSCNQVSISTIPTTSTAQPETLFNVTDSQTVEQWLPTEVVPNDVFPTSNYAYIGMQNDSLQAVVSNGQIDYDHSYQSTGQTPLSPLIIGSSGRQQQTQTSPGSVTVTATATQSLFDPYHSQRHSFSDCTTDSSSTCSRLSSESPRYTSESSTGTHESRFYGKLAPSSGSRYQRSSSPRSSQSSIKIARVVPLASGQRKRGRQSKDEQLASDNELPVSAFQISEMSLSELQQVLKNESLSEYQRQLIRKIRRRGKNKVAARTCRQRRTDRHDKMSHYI
It is filed as functional.

Experiment [2] concerns the target FAD-linked sulfhydryl oxidase ALR (Homo sapiens, UniProt P55789). The experiment in a line: inhibitors of human ALR sulfhydryl oxidase, dose response, biochemical, H2O2 detection, luminescence, cherry-pick (AID 493248).
Experiment [3] addresses Glutathione-S-transferase (Schistosoma japonicum, UniProt Q26513). The experiment in a line: biotin-GST/anti-GST TR-FRET signal inhibitors, dose response, artefact control for Vif-APOBEC3G degradation inhibitor project, biochemical (AID 1117362). It is filed as functional. (Time-resolved FRET reads energy transfer from a long-lived donor to a nearby acceptor.)
For experiment [4], the target named is T2, 14-3-3 protein gamma (Homo sapiens, UniProt P61981).
T2 sequence (P61981 whole entry): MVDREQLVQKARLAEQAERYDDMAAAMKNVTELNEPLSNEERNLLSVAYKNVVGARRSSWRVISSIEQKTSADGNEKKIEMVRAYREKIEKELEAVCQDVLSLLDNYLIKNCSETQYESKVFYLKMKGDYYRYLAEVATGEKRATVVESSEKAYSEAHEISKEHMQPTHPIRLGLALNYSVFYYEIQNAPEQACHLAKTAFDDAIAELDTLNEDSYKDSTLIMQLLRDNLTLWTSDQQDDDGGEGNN
As to the kind of experiment: modulators of 14-3-3 gamma client binding – dose response (AID 711). It is filed as functional.

Experiment [5] can be described thus: cytotoxicity in HEK-293T cells, dose response, cytotoxicity control for TCR NF-kB inhibitor project, luminescence, T-cell screen hits (AID 489026).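 Also: cells exposed to compound about 14 hours before the viability readout.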 It is filed as functional, cell-based.
The nature of experiment [6]: inhibitors of firefly luciferase expression or activity, dose response, H4 neuroglioma cells, luminescence (AID 1990). It is filed as functional, cell-based.
A short description of experiment [7]: inhibitors of SNCA 5'UTR-driven reporter translation, confirmation, H4 neuroglioma cells, luminescence (AID 1988). It is filed as functional, cell-based.
The nature of experiment [8]: HepG2 cell cytotoxicity, dose response, cytotoxicity control, ATP luminescence, cherry-pick, set 6 (AID 1053125). It is filed as functional, cell-based.
Experiment [9] is described as follows: Luminescence Cell-Based Dose Response HTS to Identify Inhibitors of 5'UTR Stem-Loop Driven Prion Protein mRNA Translation in H4 Neuroglioblastoma Cells. [Related pubchem assays: 1827 (Project Summary), 1813 (Primary HTS)]. It is filed as functional.
A short description of experiment [10]: HEK293 cell cytotoxicity, dose response, cytotoxicity control, dry powder samples (AID 720567). It is filed as functional, cell-based.
Experiment [11] addresses NAD-dependent protein deacylase sirtuin-5, mitochondrial (Homo sapiens, UniProt Q9NXA8). The experiment in a line: SIRT5 desuccinylase inhibitors, dose response, biochemical, fluorescence imaging, cherry-pick, set 5 (AID 720591).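 Also: desuccinylation of succinyl peptide AMC substrate read as fluorescence after trypsin release; potency of inhibitors that lower fluorescence and may act on trypsin instead.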
Experiment [12] concerns the target T3, Heat shock factor protein 1 (Mus musculus, UniProt P38532).
T3 sequence (P38532 whole entry): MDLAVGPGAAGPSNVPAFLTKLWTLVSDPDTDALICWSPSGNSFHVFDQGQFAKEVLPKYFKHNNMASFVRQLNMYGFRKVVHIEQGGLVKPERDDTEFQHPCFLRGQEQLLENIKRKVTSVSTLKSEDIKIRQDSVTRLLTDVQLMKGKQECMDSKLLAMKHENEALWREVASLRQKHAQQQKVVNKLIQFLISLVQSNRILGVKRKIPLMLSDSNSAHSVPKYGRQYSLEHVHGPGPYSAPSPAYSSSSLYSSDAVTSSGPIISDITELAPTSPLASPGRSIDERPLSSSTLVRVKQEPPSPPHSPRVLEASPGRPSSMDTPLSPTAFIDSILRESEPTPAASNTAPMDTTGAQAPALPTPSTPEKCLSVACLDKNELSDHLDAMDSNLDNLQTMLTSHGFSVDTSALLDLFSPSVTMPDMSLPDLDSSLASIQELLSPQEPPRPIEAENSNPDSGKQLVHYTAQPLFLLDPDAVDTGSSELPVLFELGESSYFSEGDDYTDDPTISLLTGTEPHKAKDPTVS
As to the kind of experiment: inhibition of MG132-induced HSE-luciferase signal, confirmation, cell-based, NIH3T3, luminescence, dose retest (AID 2382).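 Also: NIH3T3 fibroblasts with HSF1-driven luciferase reporter stressed by proteasome inhibitor MG132; luminescence from HSF1-driven luciferase expression after 8 hours of MG132 stress.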 It is filed as functional.

The nature of experiment [13]: CellTiter-Glo luminescent dose response of DLD-1 viability loss (AID 1117352). It is filed as functional.
Experiment [14] is described as follows: Concentration-dependent survival of SW480 colon cancer line, luminescence detection with CellTiter-Glo, half-maximal inhibitory concentration (AID 1117338). It is filed as functional.
Experiment [15] in a line: RKO cell viability reduction, dose response, CellTiter-Glo luminescence (AID 1117322). It is filed as functional. On the technique in general: Cellular ATP, detected with luciferase, serves as a proxy for viable cell number.
Experiment [16] in a line: HCT116 cell viability decrease, GSK3B pretreatment – CellTiter-Glo, IC50, dose response (AID 1117339). It is filed as functional. Particulars: HCT-116.
The nature of experiment [17]: cytotoxicity toward HCT116 cells – cell-based, CellTiter-Glo luminescence, IC50, dose response (AID 1117332). It is filed as functional. To be noted: HCT-116.
The nature of experiment [18]: SNU-C1 cell viability reduction, dose response, CellTiter-Glo luminescence (AID 1117323). It is filed as functional, cell-based.
Experiment [19] in a line: cytotoxicity toward HT-29 cells – cell-based, CellTiter-Glo luminescence, IC50, dose response (AID 1117330). It is filed as functional.
Experiment [20] is described as follows: cytotoxicity toward Colo320 cells – cell-based, CellTiter-Glo luminescence, IC50, dose response (AID 1117334). It is filed as functional. To be noted: COLO 320.

The structures appear in SMILES notation. The source made the active and inactive calls. A value given as a limit tells only on which side of the number the result lay.

Sequence of NAD-dependent protein deacylase sirtuin-5, mitochondrial (Q9NXA8 whole entry): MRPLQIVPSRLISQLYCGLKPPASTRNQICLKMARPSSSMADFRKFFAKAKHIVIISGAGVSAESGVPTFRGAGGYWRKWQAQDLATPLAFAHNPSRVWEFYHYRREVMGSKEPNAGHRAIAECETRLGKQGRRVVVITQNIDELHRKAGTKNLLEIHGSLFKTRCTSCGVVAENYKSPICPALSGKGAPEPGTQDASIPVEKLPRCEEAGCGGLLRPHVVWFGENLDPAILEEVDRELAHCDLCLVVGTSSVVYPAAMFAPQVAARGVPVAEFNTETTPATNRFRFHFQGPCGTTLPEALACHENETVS
Sequence of Glutathione-S-transferase (Q26513 whole entry): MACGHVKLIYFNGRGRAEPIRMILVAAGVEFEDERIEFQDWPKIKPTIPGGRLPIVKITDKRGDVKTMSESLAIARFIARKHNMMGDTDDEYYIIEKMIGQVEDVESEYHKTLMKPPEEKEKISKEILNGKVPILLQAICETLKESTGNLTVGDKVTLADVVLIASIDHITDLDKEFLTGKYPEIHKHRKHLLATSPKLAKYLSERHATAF
Sequence of FAD-linked sulfhydryl oxidase ALR (P55789 whole entry): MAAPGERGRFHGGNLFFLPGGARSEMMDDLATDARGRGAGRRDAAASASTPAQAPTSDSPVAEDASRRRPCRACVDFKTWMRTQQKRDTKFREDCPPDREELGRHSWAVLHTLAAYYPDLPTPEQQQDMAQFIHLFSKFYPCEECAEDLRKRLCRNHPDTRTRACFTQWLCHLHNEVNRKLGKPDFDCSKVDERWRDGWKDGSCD

As a reminder, the IC50 is the concentration at which inhibition is half-maximal. One may read the AC50 as the midpoint of the concentration-response curve, whichever way the signal moves. Take `NC(=O)c1cc(N)ccc1N1CCCC1`: the IC50 in experiment [1] was > 100 µM (inactive); in experiment [3], 12.9 µM (active); in experiment [4] it was 18.1 µM (active). In addition, the AC50 in [2] was 4.01 µM (active).

By EC50 is commonly meant the concentration that produces a half-maximal response. On to `Cc1ccc(NC(=O)Nc2ccnc(-c3cccnc3)n2)cc1`, for which the IC50 in experiment [5] was 27.8 µM (inactive). The EC50 is 0.983 µM (active) in experiment [6], 0.87 µM (active) in [7] and > 120 µM (not active) in experiment [9]. In addition, the AC50 in experiment [8] was > 52 µM (inactive).

In the case of `Cc1cccc(C)c1OCCNC(=O)C(=O)NCc1ccco1`, in experiment [10], the AC50 was > 30 µM (inactive).

Regarding `O=C(Cn1nc(-c2ccc(Cl)cc2)ccc1=O)NCC1CCCO1` (stereo not given), in experiment [11], the AC50 is > 30 µM (inactive). In addition, the half-maximal effective concentration (EC50) in experiment [12] is on record as > 195 µM (not active).

Consider `CCCCCCCCCCCCCCCCCC[N+](C)(C)CCC[Si](OC)(OC)OC`, for which the IC50 in [13], in experiment [14], in experiment [15], in experiment [16], in experiment [17] and in [18] was > 20 µM (inactive) each time. For the same compound, the IC50 in experiment [19] and in [20] was > 20 µM (inactive) each time.
